Tests used:
Test in all cases: combination Emax (second highest fraction inhibited in the dose matrix, 72 h); higher = more inhibition; extreme values may be limits of the assay
[1] = tested on: WIL2-NS (Non-Cancerous)
How it was run: (§1)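 Cell lines grown in DMEM/F12 or RPMI with 10% FBS were plated in 1536-well plates and held 24 hours at 37°C, 5% CO2 before 72 hours of exposure to two-drug dose matrices, with DMSO typically at 0.2%. CellTiter-Glo 2.0 luminescence gave viability, which was converted to inhibition. Vehicle wells were set to 0 and blank wells to 1. Combination Emax is the second-highest inhibition in the matrix, and Bliss excess is the observed combination effect minus the expected EA + EB − EA·EB, where EA and EB are the single-agent effects.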

[2] = tested on: COLO-678 (Colorectal Carcinoma)
How it was run: as §1

[3] = tested on: DND-41 (T-Lymphoblastic Leukemia)
How it was run: as §1

[4] = tested on: TOV-112D (Ovarian Carcinoma)
How it was run: as §1

[5] = tested on: SW1417 (Colorectal Carcinoma)
How it was run: as §1

[6] = tested on: KCL-22 (Chronic Myelogenous Leukemia)
How it was run: as §1

[7] = tested on: L-540 (Hodgkin's Lymphoma)
How it was run: as §1

[8] = tested on: BFTC-905 (Bladder Carcinoma)
How it was run: as §1

[9] = tested on: NCI-H2818 (Mesothelioma)
How it was run: as §1

[10] = tested on: PANC-08-13 (Pancreatic Carcinoma)
How it was run: as §1

[11] = tested on: KYSE-180 (Esophageal Squamous Cell Carcinoma)
How it was run: as §1

[12] = tested on: MFM-223 (Breast Carcinoma)
How it was run: as §1

[13] = tested on: EVSA-T (Breast Carcinoma)
How it was run: as §1

[14] = tested on: ES1 (Ewing's Sarcoma)
How it was run: as §1

[15] = tested on: TC-71 (Ewing's Sarcoma)
How it was run: as §1

[16] = tested on: MOLT-16 (T-Lymphoblastic Leukemia)
How it was run: as §1

[17] = tested on: MEL-JUSO (Melanoma)
How it was run: as §1

[18] = tested on: LN-18 (Glioblastoma)
How it was run: as §1

[19] = tested on: U251 (Low Grade Glioma)
How it was run: as §1

| SMILES | combination Emax [1] | combination Emax [2] | combination Emax [3] | combination Emax [4] | combination Emax [5] | combination Emax [6] | combination Emax [7] | combination Emax [8] | combination Emax [9] | combination Emax [10] | combination Emax [11] | combination Emax [12] | combination Emax [13] | combination Emax [14] | combination Emax [15] | combination Emax [16] | combination Emax [17] | combination Emax [18] | combination Emax [19] |
| --- | --- | --- | --- | --- | --- | --- | --- | --- | --- | --- | --- | --- | --- | --- | --- | --- | --- | --- | --- |
| CCc1c2c(nc3ccc(O)cc13)-c1cc3c(c(=O)n1C2)COC(=O)[C@]3(O)CC [SN-38] + O=C(c1cc(Cc2n[nH]c(=O)c3ccccc23)ccc1F)N1CCN(C(=O)C2CC2)CC1 [Olaparib] (first compound max 0.3 µM, 7x7, partner max 10 µM) | 1 | 0.396 | 0.947 | 0.965 | 0.694 | 0.887 | 0.965 | 0.974 | 0.359 | 0.297 | 0.527 | 0.257 | 0.784 | 1 | – | – | – | – | – |
| Cc1cc2ncnn2cc1Nc1ncc2c(n1)n(C1CCOCC1)c(=O)n2C [AZD7648] + CCN(CCO)CCCOc1ccc2c(Nc3cc(CC(=O)Nc4cccc(F)c4)[nH]n3)ncnc2c1 [AZD2811] (first compound max 10 µM, 7x7, partner max 1 µM) | 0.215 | 0.152 | 0.236 | 0.458 | 0.313 | 0.485 | 0.504 | 0.54 | 0.434 | 0.254 | 0.207 | 0.298 | 0.327 | 0.724 | 0.793 | 1 | 0.258 | 0.393 | 0.233 |
| COc1cccc(OCCCN)c1-c1cc(Nc2cnc(C#N)cn2)n[nH]1 [Prexasertib] + Cc1cc2ncnn2cc1Nc1ncc2c(n1)n(C1CCOCC1)c(=O)n2C [AZD7648] (first compound max 1 µM, 7x7, partner max 10 µM) | 1 | 0.0565 | 0.844 | 0.711 | 0.667 | 1 | 0.962 | 0.856 | 0.344 | 0.587 | 0.974 | 0.763 | 0.358 | 1 | 0.945 | 1 | 0.712 | 0.75 | 0.622 |
| CN(C)CCCOc1ccc(-c2ccc3ncc4c(c3c2)n(C2CCOCC2)c(=O)n4C)cn1 [AZD0156] + C[C@@H]1COCCN1C2=NC(=NC(=C2)C3(CC3)[S@](=N)(=O)C)C4=C5C=CNC5=NC=C4 [AZD6738] (first compound max 1 µM, 7x7, partner max 10 µM) | 0.988 | 0.123 | 0.844 | 0.717 | 0.33 | 0.978 | 0.93 | 0.891 | 0.324 | 0.373 | 0.915 | 0.828 | 0.495 | 0.956 | 0.952 | 1 | 0.525 | 0.725 | 0.584 |
| COc1cccc(OCCCN)c1-c1cc(Nc2cnc(C#N)cn2)n[nH]1 [Prexasertib] + CN(C)CCCOc1ccc(-c2ccc3ncc4c(c3c2)n(C2CCOCC2)c(=O)n4C)cn1 [AZD0156] (first compound max 1 µM, 7x7, partner max 1 µM) | 1 | 0.0457 | 0.811 | 0.614 | 0.619 | 1 | 0.968 | 0.888 | 0.282 | 0.467 | 0.983 | 0.74 | 0.252 | 1 | 0.977 | 1 | 0.751 | 0.752 | 0.613 |
| Cc1cc2ncnn2cc1Nc1ncc2c(n1)n(C1CCOCC1)c(=O)n2C [AZD7648] + C=CCn1c(=O)c2cnc(Nc3ccc(N4CCN(C)CC4)cc3)nc2n1-c1cccc(C(C)(C)O)n1 [AZD1775] (first compound max 10 µM, partner max 1 µM) | 0.954 | 0.27 | 0.813 | 0.468 | 0.555 | 0.937 | 0.945 | 0.56 | 0.462 | 0.312 | 0.778 | 0.69 | 0.291 | 0.639 | 0.496 | 1 | 0.494 | 0.366 | 0.319 |
| COc1cccc(OCCCN)c1-c1cc(Nc2cnc(C#N)cn2)n[nH]1 [Prexasertib] + C[C@@H]1COCCN1C2=NC(=NC(=C2)C3(CC3)[S@](=N)(=O)C)C4=C5C=CNC5=NC=C4 [AZD6738] (first compound max 1 µM, 7x7, partner max 10 µM) | 1 | 0.136 | 0.891 | 0.796 | 0.629 | 0.999 | 0.963 | 0.917 | 0.387 | 0.49 | 0.989 | 0.814 | 0.343 | 1 | 0.962 | 1 | 0.695 | 0.797 | 0.652 |
| CN(C)CCCOc1ccc(-c2ccc3ncc4c(c3c2)n(C2CCOCC2)c(=O)n4C)cn1 [AZD0156] + C=CCn1c(=O)c2cnc(Nc3ccc(N4CCN(C)CC4)cc3)nc2n1-c1cccc(C(C)(C)O)n1 [AZD1775] (first compound max 1 µM, partner max 1 µM) | 0.976 | 0.226 | 0.848 | 0.475 | 0.407 | 0.895 | 0.954 | 0.517 | 0.327 | 0.247 | 0.749 | 0.653 | 0.221 | 0.682 | 0.452 | 1 | 0.486 | 0.291 | 0.398 |
| COc1cc2c(cc1OCCCCCOc1cc3c(cc1OC)C(=O)N1C=C(C)C[C@H]1C=N3)N=C[C@@H]1CC(C)=CN1C2=O [SG3199] + O=C(c1cc(Cc2n[nH]c(=O)c3ccccc23)ccc1F)N1CCN(C(=O)C2CC2)CC1 [Olaparib] (first compound max 0.001 µM, 7x7, partner max 10 µM) | 0.247 | 0.13 | 0.216 | 0.269 | 0.0642 | 0.176 | 0.32 | 0.152 | 0.161 | 0.101 | 0.0586 | 0.128 | 0.276 | 0.689 | 0.518 | 0.659 | 0.0923 | 0.132 | 0.183 |
| Cc1cc2ncnn2cc1Nc1ncc2c(n1)n(C1CCOCC1)c(=O)n2C [AZD7648] + CN(C)CCCOc1ccc(-c2ccc3ncc4c(c3c2)n(C2CCOCC2)c(=O)n4C)cn1 [AZD0156] (first compound max 10 µM, 7x7, partner max 1 µM) | 0.395 | 0.0911 | 0.242 | 0.38 | 0.326 | 0.332 | 0.366 | 0.221 | 0.368 | 0.223 | 0.168 | 0.238 | 0.28 | 0.478 | 0.246 | 0.511 | 0.169 | 0.17 | 0.196 |
| Cc1cc2ncnn2cc1Nc1ncc2c(n1)n(C1CCOCC1)c(=O)n2C [AZD7648] + C[C@@H]1COCCN1C2=NC(=NC(=C2)C3(CC3)[S@](=N)(=O)C)C4=C5C=CNC5=NC=C4 [AZD6738] (first compound max 10 µM, 7x7, partner max 10 µM) | 0.979 | 0.175 | 0.894 | 0.685 | 0.491 | 0.983 | 0.951 | 0.804 | 0.43 | 0.325 | 0.867 | 0.832 | 0.323 | 0.913 | 0.835 | 1 | 0.419 | 0.272 | 0.353 |
| CCN(CCO)CCCOc1ccc2c(Nc3cc(CC(=O)Nc4cccc(F)c4)[nH]n3)ncnc2c1 [AZD2811] + C[C@@H]1COCCN1C2=NC(=NC(=C2)C3(CC3)[S@](=N)(=O)C)C4=C5C=CNC5=NC=C4 [AZD6738] (first compound max 1 µM, 7x7, partner max 10 µM) | 0.979 | 0.165 | 0.908 | 0.707 | 0.341 | 0.986 | 0.921 | 0.838 | 0.405 | 0.36 | 0.823 | 0.8 | 0.289 | 0.948 | 0.94 | 1 | 0.357 | 0.585 | 0.533 |
| CCN(CCO)CCCOc1ccc2c(Nc3cc(CC(=O)Nc4cccc(F)c4)[nH]n3)ncnc2c1 [AZD2811] + O=C(c1cc(Cc2n[nH]c(=O)c3ccccc23)ccc1F)N1CCN(C(=O)C2CC2)CC1 [Olaparib] (first compound max 1 µM, 7x7, partner max 10 µM) | 0.397 | 0.153 | 0.369 | 0.394 | 0.109 | 0.417 | 0.509 | 0.502 | 0.234 | 0.166 | 0.176 | 0.274 | 0.31 | 0.855 | 0.755 | 1 | 0.243 | 0.287 | 0.273 |
| CCN(CCO)CCCOc1ccc2c(Nc3cc(CC(=O)Nc4cccc(F)c4)[nH]n3)ncnc2c1 [AZD2811] + C=CCn1c(=O)c2cnc(Nc3ccc(N4CCN(C)CC4)cc3)nc2n1-c1cccc(C(C)(C)O)n1 [AZD1775] (first compound max 1 µM, partner max 1 µM) | 0.944 | 0.278 | 0.902 | 0.712 | 0.412 | 0.932 | 0.916 | 0.531 | 0.276 | 0.268 | 0.726 | 0.56 | 0.257 | 0.779 | 0.857 | 1 | 0.333 | 0.458 | 0.266 |

— the supplement of paper PMC11061612
